Results as given in paper PMC2263054, “Functional evolution of the vitamin D and pregnane X receptors” (BMC Evolutionary Biology, 2007).
Read-outs that look alike come from different tables or passages of the source.

Legend:
CYP3C1 = assay: zebrafish in vivo liver transcription, semi-quantitative RT-PCR: CYP3C1
Experimental: (§1) Adult zebrafish were purchased from a commercial fish supplier and acclimatized for at least two-weeks in 20 L tanks with flow-through freshwater at 22°C. A single dose of 15 mg/kg of 5α-cyprinol, 5β-cyprinol 27-sulfate, 5α-scymnol or 5β-scymnol-27 sulfate, dissolved in saline, was injected intraperitoneally. A control group was injected with saline. After 48 hr, the animals were decapitated and livers of three fish (n = 5 each group) were removed, pooled and weighed, totalizing 15 fish per group. Fish were not fed throughout the experimental period. […].
(§2) To study the transcription of CYP3C1, ABCB5, PXR, GAPDH and β-actin genes in zebrafish, initial fragments of these genes were identified (Genbank: AW202769, Genbank: BQ284593, Genbank: AAM22215, Genbank: BC083506, Genbank: AF057040, respectively). The PCR primers for CYP3C1 were designed using MacVector Software and primers for MDR1 were designed using Primer 3 Software (Whitehead Institute for Biomedical Research; [75]). Primer pairs for amplifying CYP3C1 fragment were 5'-[…]-3' (sense) and 5'-[…]-3' (antisense) and for amplifying ABCB5 were 5'-[…]-3' (sense) and 5'-[…]-3' (antisense). The PCR primers for PXR were 5'-[…]-3' (sense) and 5'-[…]-3' (antisense), for amplifying GAPDH were 5'-[…]-3' (sense) and 5' […] 3' (antisense) and for β-actin were 5'-[…]-3' (sense) and 5'-[…]-3' (antisense). RNA was isolated using Trizol (Invitrogen) according to manufacturer's instructions. Purity and concentration of RNA of each sample were verified at 260 nm. The RNA integrity was checked by non-denaturing gel electrophoresis using 1 μg of total RNA in each sample.
(§3) Two micrograms of total RNA were reversed transcribed using Ominiscript RT Kit (Qiagen, Valencia, CA, USA). cDNA concentration was checked at 260 nm, and the amount adjusted to 1 μg to perform semi-quantitative RT-PCR. The expected size of the PXR, Cyp3C1, abcb5, GAPDH and β-actin fragments were 577, 477, 218, 234 and 550 bp, respectively. Biotools DNA polymerase (Biotools B&M Labs, S.A., Madrid, Spain) kit was used for the PCR reaction using a thermocycler Personal Mastercycler (Eppendörf) with the following PCR program: 5 cycles of 94°C for 5 s, 72°C for 35 s; 5 cycles of 94°C for 5 s, 70°C for 10 s, 72°C for 35 s; and 23, 24, 35, 15 and 24 cycles (PXR, Cyp3C1, abcb5, GAPDH and β-actin, respectively) of 94°C for 5 s, 61, 54, 48, 49 and 61°C for 10 s (PXR, Cyp3C1, abcb5, GAPDH and β-actin, respectively), and 72°C for 35 s. The PXR, CYP3C1, ABCB5 and GAPDH transcript levels were quantified using Gel-Quant™ (Multiplexed Biotechologies) and β-actin was used to normalize the data. The Shapiro-Wilk W test was used to evaluate normality. When data were parametric the analysis was performed using Student t test; otherwise Mann Whitney U test was applied. […]

β-actin = assay: zebrafish in vivo liver transcription, semi-quantitative RT-PCR: β-actin
Experimental: as §1, §2, §3

[1] = tested on: ethoxyresorufin O-deethylase (EROD) activity (CYP1A-like activity); assay: EROD assay in zebrafish primary hepatocytes; conditions: zebrafish primary hepatocytes; DIM at concentrations of 2 μM and greater
Experimental: (§4) The cells are cultured at 26°C in ambient atmosphere.

[2] = tested on: MDR1 (tentatively classified as ABCB5 in zebrafish); assay: zebrafish in vivo liver transcription, semi-quantitative RT-PCR: MDR1
Experimental: as §1, §2, §3

zebrafish PXR [3] = conditions: cited from earlier work
[4] = tested on: testosterone 6β-hydroxylation activity (CYP3A-like activity); assay: testosterone hydroxylation (HPLC) in zebrafish primary hepatocytes
Experimental: as §4
100 μL of sample, calibration standard, or quality material standard were pipetted into separate microcentrifuge tubes and mixed with 100 μL of methanol. Samples were vortexed and centrifuged at 13,000 rpm for 4 min. The supernatant was then injected into the HPLC.
The flow rate was 1.2 mL/min and total run time was 25 min.

PXR = assay: zebrafish in vivo liver transcription, semi-quantitative RT-PCR: PXR
Experimental: as §1, §2, §3

zebrafish PXR [5] = conditions: luciferase reporter in HepG2 cells, normalized to 20 μM androstanol
[6] = tested on: glyceraldehyde 3-phosphate dehydrogenase (GAPDH); assay: zebrafish in vivo liver transcription, semi-quantitative RT-PCR: GAPDH; conditions: 15 mg/kg intraperitoneally, single dose, 48 hr
Experimental: Adult zebrafish were purchased from a commercial fish supplier and acclimatized for at least two-weeks in 20 L tanks with flow-through freshwater at 22°C. A single dose of 15 mg/kg of 5α-cyprinol, 5β-cyprinol 27-sulfate, 5α-scymnol or 5β-scymnol-27 sulfate, dissolved in saline, was injected intraperitoneally. A control group was injected with saline. After 48 hr, the animals were decapitated and livers of three fish (n = 5 each group) were removed, pooled and weighed, totalizing 15 fish per group. Fish were not fed throughout the experimental period.
as §2, with “The PCR primers for CYP3C1 were designed using MacVector Software and primers for MDR1 were designed using Primer 3 Software (Whitehead Institute for Biomedical Research; [75]).” left out, “Purity and concentration of RNA of each sample were verified at 260 nm.” left out
The PXR, CYP3C1, ABCB5 and GAPDH transcript levels were quantified using Gel-Quant™ (Multiplexed Biotechologies) and β-actin was used to normalize the data. The Shapiro-Wilk W test was used to evaluate normality. When data were parametric the analysis was performed using Student t test; otherwise Mann Whitney U test was applied.

[7] = zebrafish, 15 mg/kg intraperitoneally, single dose, 48 hr

## C[C@H](CCCC(CO)COS(=O)(=O)O)[C@H]1CC[C@H]2[C@@H]3[C@H](O)C[C@H]4C[C@H](O)CC[C@]4(C)[C@H]3C[C@H](O)[C@]12C (stereo partly drawn) [5α-Cyprinol 27-sulfate]
CYP3C1; [7]
  liver transcription of CYP3C1: 1.71 ± 0.50 arbitrary units normalized to β-actin
β-actin; [7]
  liver transcription of β-actin: 38.2 ± 20.7 arbitrary units
[1]
  effect on EROD activity: found not to affect EROD activity
[2]; [7]
  liver transcription of MDR1 (ABCB5): 2.29 ± 0.75 arbitrary units normalized to β-actin
Zebrafish PXR [3]; ref [29],[53]
  activity at recombinant zebrafish PXR: efficacious activator of recombinant zebrafish PXR
[4]
  increase in 6β-hydroxylation activity compared to vehicle-treated control: 15–20%
PXR; [7]
  liver transcription of PXR: 1.50 ± 0.67 arbitrary units normalized to β-actin
Zebrafish PXR [5]
  activation of recombinant zebrafish PXR: all activate recombinant zebrafish PXR
[6]
  liver transcription of GAPDH: 2.38 ± 0.79 arbitrary units normalized to β-actin

## C[C@H](CCCC(CO)CO)[C@H]1CC[C@H]2[C@@H]3[C@H](O)C[C@H]4C[C@H](O)CC[C@]4(C)[C@H]3C[C@H](O)[C@]12C [5α-Cyprinol, 5α-cholestan-3α,7α,12α,26,27-pentol]
CYP3C1; ip, 15 mg/kg, 48 h
  liver transcription of CYP3C1: 1.33 ± 0.33 arbitrary units normalized to β-actin
β-actin; ip, 15 mg/kg, 48 h
  liver transcription of β-actin: 44.7 ± 19.6 arbitrary units
[2]; ip, 15 mg/kg, 48 h
  liver transcription of MDR1 (ABCB5): 2.00 ± 1.00 arbitrary units normalized to β-actin
Zebrafish PXR [3]
  activity at recombinant zebrafish PXR: both inactive at recombinant zebrafish PXR
PXR; ip, 15 mg/kg, 48 h
  liver transcription of PXR: 0.58 ± 0.33 arbitrary units normalized to β-actin
[6]
  liver transcription of GAPDH: 1.50 ± 0.88 arbitrary units normalized to β-actin
